Data set [1] has as its system CHIKV. Set-up: method as in PMID 23275491. Particulars: CHIKV inhibition; cited from earlier work.
The nature of data set [2]: Lipophilicity by shake-flask method.
Data set [3] deals with CHIKV Indian Ocean strain 899. Kind of data set: Anti-CHIKV CPE assay on Vero cells. The following applies: for EC50: Chikungunya virus, Vero; for SI: ratio of CC50 to EC50.
Data set [4] is described as follows: Cytotoxicity assay (metabolic activity of compound-treated cells). The following applies: African green monkey.
Data set [5] concerns CHIKV. Particulars: cited from earlier work.
For data set [6] the following is noted: cited from earlier work.
Another data set concerns CHIKV isolate. The following applies: CHIKV isolate replication; cited from earlier work.

Read-outs that look alike come from different tables or passages of the source. Where only a bound is given, the exact number is not on record here.

For `COC(=O)C[C@](O)(CCC(C)(C)O)C(=O)O[C@@H]1C(OC)=C[C@]23CCCN2CCc2cc4c(cc2[C@H]13)OCO4` [Harringtonine, harringtonine], the EC50 in the data set on CHIKV [1] was 240 nM.
Turning to `O=c1oc2cc(OS(=O)(=O)c3ccccc3)ccc2cc1CSc1nc(Nc2ccccc2)c2ccccc2n1` [Compound 2b, 2′-Oxo-3′-[([4-(phenylamino)quinazolin-2-yl]thio)methyl]-2H-chromen-7′-yl Benzenesulfonate], the log partition coefficient (logP) in data set [2] came to 5.27. Moreover, in data set [3], the concentration for a half-maximal effect (EC50) was 3.84 µM and the SI came to 18.8. In data set [3] (EC50 comparison 2b vs 10a), the “fold more potent than quinazolinone conjugate 10a” value is 2.0 times. In addition, the “fold improvement of SI in comparison with 10a” value in data set [3] (SI comparison 2b vs 10a) turned out to be 3.68 times. In addition, the CC50 in data set [4] is 72.3 µM.
In data set [2], `O=c1oc2cc(OS(=O)(=O)c3ccc([N+](=O)[O-])cc3)ccc2cc1CSc1nc2ccccc2c(=O)[nH]1` [Compound 10f, 2′-Oxo-3′-([(4-oxo-3,4-dihydroquinazolin-2-yl)thio]methyl)-2H-chromen-7′-yl 4″-Nitrobenzenesulfonate] gave a logP of 3.43. Further, in data set [3], the half-maximal effective concentration (EC50) was greater than 186 µM.
For the compound `COc1ccc(S(=O)(=O)Oc2ccc3cc(CSc4nc5ccccc5c(=O)[nH]4)c(=O)oc3c2)cc1` [Compound 10b, 2′-Oxo-3′-([(4-oxo-3,4-dihydroquinazolin-2-yl)thio]methyl)-2H-chromen-7′-yl 4″-Methoxybenzenesulfonate], the logP in data set [2] came out at 3.45. For the same compound, in data set [3], the 50% effective concentration (EC50) is greater than 186 µM.
With `O=c1oc2cc(OS(=O)(=O)c3ccccc3[N+](=O)[O-])ccc2cc1CSc1nc2ccccc2c(=O)[nH]1` [Compound 10e, 2′-Oxo-3′-([(4-oxo-3,4-dihydroquinazolin-2-yl)thio]methyl)-2H-chromen-7′-yl 2″-Nitrobenzenesulfonate], the logP in data set [2] worked out at 3.48. In data set [3], a half-maximal response (EC50) required 12.7 µM and the SI is reported as 5.06. The compound further yielded a CC50 in data set [4] of 64.3 µM.
Take `O=c1oc2cc(OS(=O)(=O)c3ccccc3)ccc2cc1CSc1nc2ccccc2c(=O)[nH]1` [Compound 10a, 2′-Oxo-3′-([(4-oxo-3,4-dihydroquinazolin-2-yl)thio]methyl)-2H-chromen-7′-yl Benzenesulfonate]: the lipophilicity (logP) in data set [2] came out at 3.52. In data set [3], a half-maximal effect (EC50) was put at 7.84 µM and the SI was determined as 5.11. In addition, the CC50 in data set [4] was determined as 40.1 µM.
Compound `O=c1oc2cc(OS(=O)(=O)c3ccc(F)cc3)ccc2cc1CSc1nc2ccccc2c(=O)[nH]1` [Compound 10c, 2′-Oxo-3′-([(4-oxo-3,4-dihydroquinazolin-2-yl)thio]methyl)-2H-chromen-7′-yl 4″-Fluorobenzenesulfonate] gave a logP in data set [2] of 3.68. In data set [3], the EC50 was 6.46 µM and the SI is on record as 9.24. In data set [3] (EC50 comparison 10c vs 11), the “fold more potent against CHIKV than β-substituted isomer 11” value is on record as ~ 3 times. For the same compound, the “fold improvement of SI in comparison with β-11” value in data set [3] (SI comparison 10c vs 11) stood at 5.7 times. The compound further came in with a CC50 in data set [4] of 59.7 µM.
With `O=c1oc2cc(OS(=O)(=O)c3ccc(Br)cc3)ccc2cc1CSc1nc2ccccc2c(=O)[nH]1` [Compound 10d, 2′-Oxo-3′-([(4-oxo-3,4-dihydroquinazolin-2-yl)thio]methyl)-2H-chromen-7′-yl 4″-Bromobenzenesulfonate], the logP in data set [2] was 3.94. Besides, in data set [3], the midpoint of the response, the EC50, lay at 18.4 µM and the SI stood at 3.40. This compound came in with a CC50 in data set [4] of 62.6 µM.
For `O=C(NN=Cc1ccccc1)C1CC1` [benzylidene(cyclopropane)carbohydrazide], the half-maximal effective concentration (EC50) in the data set on CHIKV [5] (CHIKV-induced CPE) was 5 µM. Moreover, the SI in the data set on CHIKV [5] was 14.
With `Cc1ccc(C(=O)Nc2ccc(S(=O)(=O)O)c3cc(S(=O)(=O)O)cc(S(=O)(=O)O)c23)cc1NC(=O)c1cccc(NC(=O)Nc2cccc(C(=O)Nc3cc(C(=O)Nc4ccc(S(=O)(=O)O)c5cc(S(=O)(=O)O)cc(S(=O)(=O)O)c45)ccc3C)c2)c1` [Suramin], in data set [6], the CC50 is greater than 5 mM. In addition, the concentration giving a half-maximal response (EC50) in the data set on CHIKV isolate is roughly 80 µM.

A word on the EC50: it is the midpoint of the concentration-response curve. A word on the logP: it is the decadic logarithm of the partition coefficient of the neutral form, usually between octanol and water.

The values are drawn from paper PMC9322071, “Computer-Aided Design and Synthesis of (Functionalized quinazoline)–(α-substituted coumarin)–arylsulfonate Conjugates against Chikungunya Virus” (International Journal of Molecular Sciences, 2022).
